Laboratory results published in paper PMC4809600, “The Influence of Chronic Wound Extracts on Inflammatory Cytokine and Histatin Stability” (PLoS ONE, 2016).
Where no end group is shown, it is not given here.

How the values were obtained:
[1] = Stability in chronic wound extracts (CWE), capillary zone electrophoresis; assay type: in vitro ADME, human; conditions: 37°C, CZE; for Percentage intact, CWE 2h / Percentage intact, CWE 4h / Percentage intact, CWE 8h / Percentage intact, CWE 16h / Percentage intact, CWE 24h / Percentage intact, CWE 48h / Percentage intact, CWE 72h / Percentage intact, CWE 96h: 1 mg/ml in PBS mixed 1:1 with CWE (1 mg/ml protein, pool of 5 donors) in PBS, UV 200 nm, ratio to imidazole
Excerpt: (§1) Debridement tissue was obtained from chronic ulcers of 15 patients with therapy resistant (arterio-venous) leg ulcers, according to procedures described earlier. In brief, moist, easily removable debridement material, essentially blood free, was collected from the ulcer surface and divided equally into two different solutions: (i) PBS (B. Braun, Melsungen, Germany), (ii) PBS with protease inhibitor cocktail (PIC) (1:100; v/v) (Sigma-Aldrich, Steinheim, Germany). The mixtures were gently shaken for 1 h at 4°C to elute proteins and centrifuged; the supernatants were stored at -80°C. Total protein content of the supernatant was measured using the BioRad Protein Assay (BioRad Laboratories, Hercules, California, USA) essentially as described by the supplier. Samples were diluted to 1 mg/ml protein and extracts of five different donors were pooled; three different pools of five donors were used in all experiments. The samples are referred to as chronic wound extracts (CWE).
(§2) To determine the stability of the different peptides in CWE, histatins and cytokines were dissolved in PBS at 1 mg/ml. Histatins and cytokines were incubated in a 1:1 ratio with (i) PBS, (ii) CWE in PBS, or (iii) CWE in PBS containing PIC, in a total volume of 25 μl. Imidazole (Sigma-Aldrich) was added as an internal standard, with a final concentration of 100 μg/ml. The mixtures were incubated at 37°C, and samples were taken at 0, 24, 48, 72 and 96 h. For histatins containing mixtures, additional samples were taken after 2, 4, 8 and 16 h of incubation.
(§3) The samples were analyzed with a BioFocus 2000 capillary zone electrophoresis system (Bio-Rad Laboratories, Hercules, CA, USA) equipped with an uncoated fused-silica capillary of internal diameter 50 μm and a length of 24 cm. Samples were loaded by pressure injection (5 psi/sec). Separation was performed at 10 kV (cathode at the detector side) at 20°C using 0.1 M phosphate buffer (pH 2.5) as electrolyte and monitored continuously at 200 nm. Peaks were quantified with the BioFocus Integrator software. In order to quantify the percentage of intact peptides remaining after incubation with CWE, the ratios of histatins, rhIL-6 or rhCXCL8 to internal standard was set at 100% at 0h, and the ratios at the other incubation time points were related to this.

[2] = Stability in CWE with protease inhibitor cocktail (PIC), capillary zone electrophoresis; assay type: in vitro ADME, human; conditions: 37°C, CZE, 0 h = 100%; for Percentage intact, CWE + PIC 2h / Percentage intact, CWE + PIC 4h / Percentage intact, CWE + PIC 8h / Percentage intact, CWE + PIC 16h / Percentage intact, CWE + PIC 24h / Percentage intact, CWE + PIC 48h / Percentage intact, CWE + PIC 72h / Percentage intact, CWE + PIC 96h: 1 mg/ml in PBS mixed 1:1 with CWE (1 mg/ml protein, pool of 5 donors) in PBS containing PIC (final 1:140 v/v), ratio to imidazole
Excerpt: as §1, §2, §3

RKFHEKHHSHREFPFYGDYGSNYLYDN [Hst2]
Percentage intact, CWE 2h ([1]; 0 h = 100%, experiment 1 of 3): 96.21%
Percentage intact, CWE 2h ([1]; 0 h = 100%, experiment 2 of 3): 97.4179%
Percentage intact, CWE 2h ([1]; 0 h = 100%, experiment 3 of 3): 80.1639%
Percentage intact, CWE 4h ([1]; 0 h = 100%, experiment 1 of 3): 78.5338%
Percentage intact, CWE 4h ([1]; 0 h = 100%, experiment 2 of 3): 80.0345%
Percentage intact, CWE 4h ([1]; 0 h = 100%, experiment 3 of 3): 54.5442%
Percentage intact, CWE 8h ([1]; 8 h, 0 h = 100%, experiment 1 of 3): 57.5027%
Percentage intact, CWE 8h ([1]; 8 h, 0 h = 100%, experiment 2 of 3): 66.6666%
Percentage intact, CWE 8h ([1]; 8 h, 0 h = 100%, experiment 3 of 3): 34.5662%
Percentage intact, CWE 16h ([1]; 0 h = 100%, experiment 1 of 3): 14.9136%
Percentage intact, CWE 16h ([1]; 0 h = 100%, experiment 2 of 3): 27.664%
Percentage intact, CWE 16h ([1]; 0 h = 100%, experiment 3 of 3): 7.724%
Percentage intact, CWE 24h ([1]; 24 h, 0 h = 100%, experiment 1 of 3): 4.675%
Percentage intact, CWE 24h ([1]; 24 h, 0 h = 100%, experiment 2 of 3): 5.495%
Percentage intact, CWE 24h ([1]; 24 h, 0 h = 100%, experiment 3 of 3): 8.834%
Percentage intact, CWE 48h ([1]; 0 h = 100%, experiment 2 of 3): 0.0001%
Percentage intact, CWE 48h ([1]; 0 h = 100%, experiment 3 of 3): 0.0001%
Percentage intact, CWE 72h ([1]; 0 h = 100%, experiment 2 of 3): 0.0001%
Percentage intact, CWE 72h ([1]; 0 h = 100%, experiment 3 of 3): 0.0001%
Percentage intact, CWE 96h ([1]; 0 h = 100%, experiment 2 of 3): 0.0001%
Percentage intact, CWE 96h ([1]; 0 h = 100%, experiment 3 of 3): 0.0001%
remaining at 8 h, 0.5 mg/ml ([1]; human, chronic wound extracts (CWE), 1 mg/ml in PBS mixed 1:1 with CWE (1 mg/ml protein, pools of 5 donors), 8 h, 0 h = 100%, mean of 3 independent experiments, read-out: Original amount of peptide remaining intact after 8 h in CWE): 53%
remaining at 24 h, 0.5 mg/ml ([1]; human, chronic wound extracts (CWE), 1 mg/ml in PBS mixed 1:1 with CWE (1 mg/ml protein, pools of 5 donors), 24 h, 0 h = 100%, mean of 3 independent experiments, read-out: Original amount of peptide remaining intact after 24 h in CWE): 6%
metabolised at 8 h, 0.5 mg/ml ([1]; human, chronic wound extracts (CWE), incubation with chronic wound extracts, 8 h, read-out: Breakdown (degradation) in CWE in 8 h): ~50%
Percentage intact, CWE + PIC 2h ([2]; experiment 1 of 3): 93.4426%
Percentage intact, CWE + PIC 2h ([2]; experiment 2 of 3): 92.5142%
Percentage intact, CWE + PIC 2h ([2]; experiment 3 of 3): 89.0301%
Percentage intact, CWE + PIC 4h ([2]; experiment 1 of 3): 91.5351%
Percentage intact, CWE + PIC 4h ([2]; experiment 2 of 3): 92.7977%
Percentage intact, CWE + PIC 4h ([2]; experiment 3 of 3): 86.7184%
Percentage intact, CWE + PIC 8h ([2]; experiment 1 of 3): 85.6684%
Percentage intact, CWE + PIC 8h ([2]; experiment 2 of 3): 89.4382%
Percentage intact, CWE + PIC 8h ([2]; experiment 3 of 3): 85.0239%
Percentage intact, CWE + PIC 16h ([2]; experiment 1 of 3): 76.054%
Percentage intact, CWE + PIC 16h ([2]; experiment 2 of 3): 80.3459%
Percentage intact, CWE + PIC 16h ([2]; experiment 3 of 3): 78.2959%
Percentage intact, CWE + PIC 24h ([2]; 24 h, experiment 1 of 3): 76.7074%
Percentage intact, CWE + PIC 24h ([2]; 24 h, experiment 2 of 3): 74.947%
Percentage intact, CWE + PIC 24h ([2]; 24 h, experiment 3 of 3): 84.5492%
Percentage intact, CWE + PIC 48h ([2]; experiment 1 of 3): 70.9832%
Percentage intact, CWE + PIC 48h ([2]; experiment 2 of 3): 66.2527%
Percentage intact, CWE + PIC 48h ([2]; experiment 3 of 3): 75.4922%
Percentage intact, CWE + PIC 72h ([2]; experiment 1 of 3): 69.8915%
Percentage intact, CWE + PIC 72h ([2]; experiment 2 of 3): 66.4949%
Percentage intact, CWE + PIC 72h ([2]; experiment 3 of 3): 68.9587%
Percentage intact, CWE + PIC 96h ([2]; experiment 1 of 3): 63.8972%
Percentage intact, CWE + PIC 96h ([2]; experiment 2 of 3): 62.3087%
Percentage intact, CWE + PIC 96h ([2]; experiment 3 of 3): 62.2105%
remaining at 24 h, 0.5 mg/ml ([2]; human, with protease inhibitor cocktail (PIC), CWE with protease inhibitor cocktail (final 1:140 v/v), 24 h, mean of 3 independent experiments, read-out: Remaining fraction of intact peptide after 24 h in CWE + PIC): 78%
